Data taken from patent publication US6521445B1, “Process for preparing optically active glycidate esters” (Sepracor, Inc., priority 1988, dated 2003).

Tests used:
[1] = aqueous solution; cited from earlier work
[2] = Solubility of racemic ester in toluene; assay type: physicochemical; conditions: 4° C.
Method: The amount of toluene required to dissolve the racemic ester at 4° C. was determined by dividing the weight of racemic ester by the solubility of the ester in toluene at this temperature (˜0.13 g of racemic ester/g of toluene). The weight of toluene required was then 19.07/0.13=146.7 g. The two organic fractions were combined and toluene was then evaporated until the total weight of toluene plus ester was equal to 146.7+109.5 or 256.2 g. Afterward, the organic concentrate containing ester and toluene was cooled to 4° C. for 18 hours in order to crystallize the (2R,3S) enantiomer of the ester. The precipitated crystals were then filtered and analyzed, while the mother liquor was saved for recycling. The amount of solids collected was 91.9 g. […] The yield of resolved ester was 38.6%.

[3] = Degradation rate of racemic ester in membrane reactor system, toluene vs MIBK; assay type: physicochemical; conditions: organic solution in contact with 50 mM phosphate buffer pH 8.0, membrane reactor
Method: In a separate experiment, the degradation rate of racemic ester was measured in a membrane reactor system using two kinds of solvent, toluene and methyl isobutyl ketone (MIBK), at different concentrations of glycidyl ester. These organic solutions were brought into contact separately with a 50 mM phosphate buffer (pH 8.0) to simulate enzymatic resolution conditions. The amount of ester present in the organic solutions was monitored over several hours.

[4] = Non-enzymatic degradation of substrate ester in the presence of BSA; assay type: physicochemical
Excerpt: Following these experiments, another factor was then considered. As the interfacial activity of any compound will be affected by surfactants, for instance a protein, one could expect the presence of the enzyme to exert effects on the non-enzymatic nonspecific degradation of the substrate compound. To test this proposition, control experiments were run in which bovine serum albumin (BSA) was substituted for the hydrolytic enzyme in the reaction mixture. The chlorinated hydrocarbons and p-xylene were omitted for convenience.
Racemic 3-(4-methoxyphenyl) glycidic acid methyl ester (10.0 mmols, 2.08 g) was dissolved in 50 mL of the chosen organic solvent, and added to 50 mL of 200 mM sodium phosphate buffer at the chosen pH (7.0, 8.0, or 8.5) in a 250 mL shaker flask. Bovine serum albumin (BSA, 100 mg) was then added. The flask was closed, and agitated for 18 hours at ambient temperature (20-25° C.). The reaction mixture was then poured into a separatory funnel, the organic layer removed (except in the case of 1,4-dioxane, which is miscible in water), and the aqueous layer washed with diethyl ether. The organic layers were then combined, backwashed with water, and dried over anhydrous magnesium sulfate. The organic solvent was then removed under reduced pressure, and the recovered ester weighed to determine the extent of non-enzymatic degradation.

[5] = Stability of GLOP / racemic ester in solvents on standing; assay type: physicochemical
Excerpt: At six days, only about half of the original amount of ester remained.

[6] = Stability of glycidic ester in aqueous phosphate buffer with and without toluene; assay type: physicochemical
Excerpt: In the present invention, enzyme catalysts are present either dissolved or dispersed in an aqueous phase. Although the glycidic esters described herein are generally quite insoluble in water, the epoxide ring is susceptible to opening through nucleophilic attack by species such as hydroxide ions and water molecules, even in the absence of enzymes. […] Therefore, the use of an organic phase as a method for protecting the substrate from undesired transformations by water, hydroxide ions, or water-soluble buffer systems is a significant aspect of this invention. These experimental observations indicate the need for a biphasic system, and preferably a multiphase/extractive membrane reactor as described below, for efficiently conducting the enzyme-mediated resolution process disclosed herein.

[7] = Loss of compound A on extraction with 10% bisulfite solution; assay type: physicochemical; conditions: diethyl ether solution extracted once with 10% bisulfite solution
Method: 2.0 g of pure, racemic compound A were dissolved in 200 mls of diethyl ether. This organic solution was then extracted once with 250 mls of a 10% bisulfite solution, washed with 250 mls water, dried over magnesium sulphate, and evaporated to leave 1.8 g of racemic compound A, indicating a 10% loss of material. Recovery of material in the absence of the bisulfite wash was nearly quantitative.

Lipase P = target: T1, Lipase P (Burkholderia cepacia, UniProt P22088); assay: Degree of inhibition by reaction products: initial rate of hydrolysis of compound A by Lipase P; assay type: biochemical; conditions: pH 8.0, 400 mM compound A in toluene, in the presence of 1 mmole (50 mM) of the compound, A alone = 1.0
T1 construct: purchased Amano
T1 sequence (P22088 45-364): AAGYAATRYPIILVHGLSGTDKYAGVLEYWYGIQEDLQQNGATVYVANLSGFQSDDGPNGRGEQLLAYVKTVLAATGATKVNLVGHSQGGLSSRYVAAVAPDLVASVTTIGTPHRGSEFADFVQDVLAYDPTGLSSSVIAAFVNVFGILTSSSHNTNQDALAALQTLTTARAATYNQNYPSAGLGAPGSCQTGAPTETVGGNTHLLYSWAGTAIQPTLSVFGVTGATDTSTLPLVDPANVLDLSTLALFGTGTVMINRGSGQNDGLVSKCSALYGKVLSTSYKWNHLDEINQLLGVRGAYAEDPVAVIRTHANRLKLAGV
Method: (§1) A reaction mixture composed of 12 mls of 50 mM sodium phosphate buffer at pH 8.0 and 8 mls of a 400 mM toluene solution of pure, racemic compound A, was rapidly stirred and the reaction rate monitored by a device known as a “pH stat”. A given amount of a given commercial enzyme preparation was then added to the reaction mixture, and the initial rate of hydrolysis calculated. The reaction was repeated in the presence of 1 mmole (50 mM) of compound C, in the presence of 1 mmole (50 mM) of compound D, and in the presence of 1 mmole (50 mM) of compound E. The results are tabulated in Table 11.

Lipase OF = assay: Degree of inhibition by reaction products: initial rate of hydrolysis of compound A by Lipase OF; assay type: biochemical, Candida cylindracea; conditions: pH 8.0, 400 mM compound A in toluene, in the presence of 1 mmole (50 mM) of the compound, A alone = 1.0
Method: as §1

Lipase MAP = assay: Degree of inhibition by reaction products: initial rate of hydrolysis of compound A by Lipase MAP; assay type: biochemical; conditions: pH 8.0, 400 mM compound A in toluene, in the presence of 1 mmole (50 mM) of the compound, A alone = 1.0
Method: as §1

Palatase M = target: T2, Palatase M (Rhizomucor miehei, UniProt P19515); assay: Degree of inhibition by reaction products: initial rate of hydrolysis of compound A by Palatase M; assay type: biochemical; conditions: pH 8.0, 400 mM compound A in toluene, in the presence of 1 mmole (50 mM) of the compound, A alone = 1.0
T2 construct: purchased Novo
T2 sequence (P19515 95-363): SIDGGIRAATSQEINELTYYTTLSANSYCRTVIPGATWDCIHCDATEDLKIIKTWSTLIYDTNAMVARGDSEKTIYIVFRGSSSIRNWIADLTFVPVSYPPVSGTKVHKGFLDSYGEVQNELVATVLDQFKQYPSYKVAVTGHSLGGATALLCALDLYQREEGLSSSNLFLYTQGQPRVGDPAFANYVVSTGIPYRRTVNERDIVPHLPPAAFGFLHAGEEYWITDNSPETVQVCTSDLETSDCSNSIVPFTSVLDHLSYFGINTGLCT
Method: as §1

## O=S(O)O [bisulfite anion]
[1]
  pKa: approximately 7

## COC(=O)[C@@H]1O[C@H]1c1ccc(OC)cc1 (relative stereo) [Compound A, trans-3-(4-methoxyphenyl)glycidic acid methyl ester]
[2]
  Solubility of the ester in toluene: ~0.13 g of racemic ester/g of toluene
[3]
  Degradation rate constant in MIBK relative to toluene: about 3 times
[4]; 1,4-dioxane, pH 7.0, 18 hours ambient
  Percent degradation: 40.9%
[4]; 1,4-dioxane, pH 8.0, 18 hours ambient
  Percent degradation: 21.6%
[4]; MIBK, pH 8.0, 18 hours ambient
  Percent degradation: 15.0%
[4]; MIBK, pH 8.5, 18 hours ambient
  Percent degradation: 12.0%
[4]; MetBuO, pH 7.0, 18 hours ambient
  Percent degradation: 41.8%
[4]; MetBuO, pH 8.0, 18 hours ambient
  Percent degradation: 22.1%
[4]; benzene, pH 7.0, 18 hours ambient
  Percent degradation: 38.5%
[4]; benzene, pH 8.0, 18 hours ambient
  Percent degradation: 14.4%
[4]; cyclohexane, pH 7.0, 18 hours ambient
  Percent degradation: 71.6%
[4]; cyclohexane, pH 8.0, 18 hours ambient
  Percent degradation: 38.5%
[4]; toluene, pH 8.0, 18 hours ambient
  Percent degradation: 14.3%
[4]; toluene, pH 8.5, 18 hours ambient
  Percent degradation: 19.1%
[5]; saturated methanol solution, room temperature, six days
  Original amount of ester remaining: about half
[5]; saturated methanol solution, room temperature, two days, HPLC
  Original amount of ester degraded: about 9%
[6]; aqueous sodium phosphate buffer pH 7.0, 18 hours, ambient temperature, no organic solvent or enzyme
  Stability in aqueous buffer: loss of glycidic ester
[6]; toluene in 1-to-1 phase ratio with pH 7.0 buffer, 18 hours
  Glycidic ester recovered: 100%
[7]
  Loss of material: 10%

## COc1ccc(CC(=O)O)cc1 [D, 4-methoxyphenylacetic acid]
Lipase P
  Relative Initial Rates: 1.07
Lipase OF
  Relative Initial Rates: 1.18
Lipase MAP
  Relative Initial Rates: 0.99
Palatase M
  Relative Initial Rates: >1.0

## COc1ccc(CC=O)cc1 [C, 4-methoxyphenylacetaldehyde]
Lipase P
  Relative Initial Rates: 1.00
Lipase OF
  Relative Initial Rates: 0.63
Lipase MAP
  Relative Initial Rates: 0.73
Palatase M
  Relative Initial Rates: 0.38

## COC(=O)[C@@H]1O[C@H]1c1ccc(OC)cc1 [resolved GLOP, (2R,3S)-3-(4-methoxyphenyl)glycidic acid methyl ester]
[5]; aromatic solvent, ambient temperature, over days
  Stability in solution: stable against the loss of material or optical activity
